Broadly, the MIC is the lowest concentration that inhibits growth of the organism.

In brackets after ≈: the same amount, converted by molar mass.

One experiment has as its system Staph. aureus 209-P. The experiment in a line: Anti-bacterial activity (MIC), agar dilution. It counts as cell-based. To be noted: Staphylococcus aureus, 209P, 18 h, Staph. aureus 209-P; agar dilution, about 10^6 CFU/ml, 18 hours, 37° C.; read-out: MIC. The method, then: (§1) MIC (μg/ml) were determined by an agar dilution method [Chemotherapy (Japan), 29, 76-79, 1981]. Overnight cultures of the bacterial strains in Mueller-Hinton broth were diluted to final concentration of about 10^6 CFU/ml, and 5 μl of each bacterial suspension was spotted onto Mueller-Hinton agar plates that contained twofold serial dilutions of antibiotics. MICs were measured after incubation for 18 hours at 37° C.
Background: Agar dilution tests growth on a series of plates holding different concentrations.
For `NC(=O)C[N+]1(C/C=C/C2=C(C(=O)[O-])N3C(=O)[C@@H](NC(=O)/C(=N\OCF)c4nsc(N)n4)[C@H]3SC2)CCC(C(N)=O)CC1` (stereo partly drawn) [Example 40], the minimum inhibitory concentration (MIC) worked out at 0.4 µg/mL (≈ 0.639 µM).
`Nc1nc(/C(=N/OCF)C(=O)N[C@@H]2C(=O)N3C(C(=O)[O-])=C(/C=C/C[N+]4(CCO)CC=C(C=NO)CC4)CS[C@H]23)ns1` (stereo partly drawn) [Example 42]: the MIC turned out to be 0.2 µg/mL (≈ 0.328 µM).
Regarding `NC(=O)C1=CC[N+](C/C=C/C2=C(C(=O)[O-])N3C(=O)[C@@H](NC(=O)/C(=N\OCF)c4nsc(N)n4)[C@H]3SC2)(CCO)CC1` (stereo partly drawn) [Example 43], the minimum inhibitory concentration (MIC) turned out to be 0.2 µg/mL (≈ 0.328 µM).
Regarding `CC[N+](C)(C/C=C/C1=C(C(=O)[O-])N2C(=O)[C@@H](NC(=O)/C(=N\OCF)c3nsc(N)n3)[C@H]2SC1)CCO` (stereo partly drawn) [Example 44], the MIC came out at 0.4 µg/mL (≈ 0.736 µM).
Turning to `CC[N+](C)(CC#N)C/C=C/C1=C(C(=O)[O-])N2C(=O)[C@@H](NC(=O)/C(=N\OCF)c3nsc(N)n3)[C@H]2SC1` (stereo partly drawn) [Example 45], the MIC turned out to be 0.4 µg/mL (≈ 0.743 µM).
Regarding `CC(=O)NCC[N+](C/C=C/C1=C(C(=O)[O-])N2C(=O)[C@@H](NC(=O)/C(=N\OCF)c3nsc(N)n3)[C@H]2SC1)(CCO)CCO` [Example 51], the minimal inhibitory concentration (MIC) came out at 0.4 µg/mL (≈ 0.634 µM).

In the next experiment the test system is Pseud. aeruginosa EP-01. The experiment in a line: Anti-bacterial activity (MIC), agar dilution. It counts as cell-based. Particulars: Pseudomonas aeruginosa, EP01, 18 h, Pseud. aeruginosa EP-01; agar dilution, about 10^6 CFU/ml, 18 hours, 37° C.; read-out: MIC. The method, then: as §1
As for `NC(=O)C[N+]1(C/C=C/C2=C(C(=O)[O-])N3C(=O)[C@@H](NC(=O)/C(=N\OCF)c4nsc(N)n4)[C@H]3SC2)CCC(C(N)=O)CC1` (stereo partly drawn) [Example 40], the MIC is 0.8 µg/mL (≈ 1.28 µM).
As for `Nc1nc(/C(=N/OCF)C(=O)N[C@@H]2C(=O)N3C(C(=O)[O-])=C(/C=C/C[N+]4(CCO)CC=C(C=NO)CC4)CS[C@H]23)ns1` (stereo partly drawn) [Example 42], the minimum inhibitory concentration (MIC) turned out to be 1.56 µg/mL (≈ 2.55 µM).
Consider `NC(=O)C1=CC[N+](C/C=C/C2=C(C(=O)[O-])N3C(=O)[C@@H](NC(=O)/C(=N\OCF)c4nsc(N)n4)[C@H]3SC2)(CCO)CC1` (stereo partly drawn) [Example 43], for which the MIC came out at 0.8 µg/mL (≈ 1.31 µM).
For `CC[N+](C)(C/C=C/C1=C(C(=O)[O-])N2C(=O)[C@@H](NC(=O)/C(=N\OCF)c3nsc(N)n3)[C@H]2SC1)CCO` (stereo partly drawn) [Example 44], the MIC was found to be 1.56 µg/mL (≈ 2.87 µM).
As for `CC[N+](C)(CC#N)C/C=C/C1=C(C(=O)[O-])N2C(=O)[C@@H](NC(=O)/C(=N\OCF)c3nsc(N)n3)[C@H]2SC1` (stereo partly drawn) [Example 45], the MIC was 0.8 µg/mL (≈ 1.49 µM).
The same measure, in the same setting: to `CC(=O)NCC[N+](C/C=C/C1=C(C(=O)[O-])N2C(=O)[C@@H](NC(=O)/C(=N\OCF)c3nsc(N)n3)[C@H]2SC1)(CCO)CCO` [Example 51] belongs 1.56 µg/mL (≈ 2.47 µM).

In a further experiment the test system is Kleb. pneumoniae EK-6. Put plainly: Anti-bacterial activity (MIC), agar dilution. It counts as cell-based. Particulars: Klebsiella pneumoniae, EK6, 18 h, Kleb. pneumoniae EK-6; agar dilution, about 10^6 CFU/ml, 18 hours, 37° C.; read-out: MIC. The method, then:
as §1
In the case of `NC(=O)C[N+]1(C/C=C/C2=C(C(=O)[O-])N3C(=O)[C@@H](NC(=O)/C(=N\OCF)c4nsc(N)n4)[C@H]3SC2)CCC(C(N)=O)CC1` (stereo partly drawn) [Example 40], the MIC is ≤ 0.025 µg/mL.
Consider `Nc1nc(/C(=N/OCF)C(=O)N[C@@H]2C(=O)N3C(C(=O)[O-])=C(/C=C/C[N+]4(CCO)CC=C(C=NO)CC4)CS[C@H]23)ns1` (stereo partly drawn) [Example 42], for which the minimum inhibitory concentration (MIC) is 0.05 µg/mL (≈ 0.0819 µM).
As to `NC(=O)C1=CC[N+](C/C=C/C2=C(C(=O)[O-])N3C(=O)[C@@H](NC(=O)/C(=N\OCF)c4nsc(N)n4)[C@H]3SC2)(CCO)CC1` (stereo partly drawn) [Example 43], the minimal inhibitory concentration (MIC) was ≤ 0.025 µg/mL.
Regarding `CC[N+](C)(C/C=C/C1=C(C(=O)[O-])N2C(=O)[C@@H](NC(=O)/C(=N\OCF)c3nsc(N)n3)[C@H]2SC1)CCO` (stereo partly drawn) [Example 44], the minimal inhibitory concentration (MIC) was ≤ 0.025 µg/mL.
Regarding `CC[N+](C)(CC#N)C/C=C/C1=C(C(=O)[O-])N2C(=O)[C@@H](NC(=O)/C(=N\OCF)c3nsc(N)n3)[C@H]2SC1` (stereo partly drawn) [Example 45], the MIC is ≤ 0.025 µg/mL.
On to `CC(=O)NCC[N+](C/C=C/C1=C(C(=O)[O-])N2C(=O)[C@@H](NC(=O)/C(=N\OCF)c3nsc(N)n3)[C@H]2SC1)(CCO)CCO` [Example 51], for which the minimum inhibitory concentration (MIC) is 0.05 µg/mL (≈ 0.0793 µM).

Another experiment has as its system Morganella morganii EP-14. The experiment in a line: Anti-bacterial activity (MIC), agar dilution. It counts as cell-based. Particulars: Morganella morganii, EP14, 18 h, about 10^6 CFU/ml, 37° C., read-out: MIC. The method, then: as §1
`NC(=O)C[N+]1(C/C=C/C2=C(C(=O)[O-])N3C(=O)[C@@H](NC(=O)/C(=N\OCF)c4nsc(N)n4)[C@H]3SC2)CCC(C(N)=O)CC1` (stereo partly drawn) [Example 40]: the minimum inhibitory concentration (MIC) is ≤ 0.025 µg/mL.
The same measure, in the same setting: in the case of `Nc1nc(/C(=N/OCF)C(=O)N[C@@H]2C(=O)N3C(C(=O)[O-])=C(/C=C/C[N+]4(CCO)CC=C(C=NO)CC4)CS[C@H]23)ns1` (stereo partly drawn) [Example 42] it was ≤ 0.025 µg/mL; in that of `NC(=O)C1=CC[N+](C/C=C/C2=C(C(=O)[O-])N3C(=O)[C@@H](NC(=O)/C(=N\OCF)c4nsc(N)n4)[C@H]3SC2)(CCO)CC1` (stereo partly drawn) [Example 43], ≤ 0.025 µg/mL.
As for `CC[N+](C)(C/C=C/C1=C(C(=O)[O-])N2C(=O)[C@@H](NC(=O)/C(=N\OCF)c3nsc(N)n3)[C@H]2SC1)CCO` (stereo partly drawn) [Example 44], the MIC was 0.05 µg/mL (≈ 0.092 µM).
Turning to `CC[N+](C)(CC#N)C/C=C/C1=C(C(=O)[O-])N2C(=O)[C@@H](NC(=O)/C(=N\OCF)c3nsc(N)n3)[C@H]2SC1` (stereo partly drawn) [Example 45], the minimum inhibitory concentration (MIC) is ≤ 0.025 µg/mL.
Consider `CC(=O)NCC[N+](C/C=C/C1=C(C(=O)[O-])N2C(=O)[C@@H](NC(=O)/C(=N\OCF)c3nsc(N)n3)[C@H]2SC1)(CCO)CCO` [Example 51], for which the MIC is 0.05 µg/mL (≈ 0.0793 µM).

The next experiment deals with Escher. coli NIHJ. Put plainly: Anti-bacterial activity (MIC), agar dilution. It counts as cell-based. To be noted: Escherichia coli, 18 h, Escher. coli NIHJ; agar dilution, about 10^6 CFU/ml, 18 hours, 37° C.; read-out: MIC. The method, then:
as §1
In the case of `NC(=O)C[N+]1(C/C=C/C2=C(C(=O)[O-])N3C(=O)[C@@H](NC(=O)/C(=N\OCF)c4nsc(N)n4)[C@H]3SC2)CCC(C(N)=O)CC1` (stereo partly drawn) [Example 40], the MIC is ≤ 0.025 µg/mL.
With `Nc1nc(/C(=N/OCF)C(=O)N[C@@H]2C(=O)N3C(C(=O)[O-])=C(/C=C/C[N+]4(CCO)CC=C(C=NO)CC4)CS[C@H]23)ns1` (stereo partly drawn) [Example 42], the MIC is ≤ 0.025 µg/mL.
Same read-out and setting: in the case of `NC(=O)C1=CC[N+](C/C=C/C2=C(C(=O)[O-])N3C(=O)[C@@H](NC(=O)/C(=N\OCF)c4nsc(N)n4)[C@H]3SC2)(CCO)CC1` (stereo partly drawn) [Example 43] it was ≤ 0.025 µg/mL.
For the compound `CC[N+](C)(C/C=C/C1=C(C(=O)[O-])N2C(=O)[C@@H](NC(=O)/C(=N\OCF)c3nsc(N)n3)[C@H]2SC1)CCO` (stereo partly drawn) [Example 44], the minimal inhibitory concentration (MIC) was 0.05 µg/mL (≈ 0.092 µM).
The same measure, in the same setting: in the case of `CC[N+](C)(CC#N)C/C=C/C1=C(C(=O)[O-])N2C(=O)[C@@H](NC(=O)/C(=N\OCF)c3nsc(N)n3)[C@H]2SC1` (stereo partly drawn) [Example 45] it was ≤ 0.025 µg/mL.
Turning to `CC(=O)NCC[N+](C/C=C/C1=C(C(=O)[O-])N2C(=O)[C@@H](NC(=O)/C(=N\OCF)c3nsc(N)n3)[C@H]2SC1)(CCO)CCO` [Example 51], the minimum inhibitory concentration (MIC) was determined as 0.05 µg/mL (≈ 0.0793 µM).

The next experiment relates to Ser. marcescens ES-75. Put plainly: Anti-bacterial activity (MIC), agar dilution. It counts as cell-based. Particulars: Serratia marcescens, ES75, 18 h, Ser. marcescens ES-75; agar dilution, about 10^6 CFU/ml, 18 hours, 37° C.; read-out: MIC. The method, then: as §1
`NC(=O)C[N+]1(C/C=C/C2=C(C(=O)[O-])N3C(=O)[C@@H](NC(=O)/C(=N\OCF)c4nsc(N)n4)[C@H]3SC2)CCC(C(N)=O)CC1` (stereo partly drawn) [Example 40]: the minimal inhibitory concentration (MIC) is ≤ 0.025 µg/mL.
As for `Nc1nc(/C(=N/OCF)C(=O)N[C@@H]2C(=O)N3C(C(=O)[O-])=C(/C=C/C[N+]4(CCO)CC=C(C=NO)CC4)CS[C@H]23)ns1` (stereo partly drawn) [Example 42], the minimum inhibitory concentration (MIC) is ≤ 0.025 µg/mL.
As to `NC(=O)C1=CC[N+](C/C=C/C2=C(C(=O)[O-])N3C(=O)[C@@H](NC(=O)/C(=N\OCF)c4nsc(N)n4)[C@H]3SC2)(CCO)CC1` (stereo partly drawn) [Example 43], the MIC was ≤ 0.025 µg/mL.
As to `CC[N+](C)(C/C=C/C1=C(C(=O)[O-])N2C(=O)[C@@H](NC(=O)/C(=N\OCF)c3nsc(N)n3)[C@H]2SC1)CCO` (stereo partly drawn) [Example 44], the MIC turned out to be 0.1 µg/mL (≈ 0.184 µM).
Take `CC[N+](C)(CC#N)C/C=C/C1=C(C(=O)[O-])N2C(=O)[C@@H](NC(=O)/C(=N\OCF)c3nsc(N)n3)[C@H]2SC1` (stereo partly drawn) [Example 45]: the MIC was determined as 0.1 µg/mL (≈ 0.186 µM).
`CC(=O)NCC[N+](C/C=C/C1=C(C(=O)[O-])N2C(=O)[C@@H](NC(=O)/C(=N\OCF)c3nsc(N)n3)[C@H]2SC1)(CCO)CCO` [Example 51]: the MIC was determined as 0.05 µg/mL (≈ 0.0793 µM).

These data come from patent publication US4921850A, “3-propenylcephem derivative” (Eisai Co., Ltd., priority 1986, dated 1990).
